According to ChEMBL document CHEMBL3885861, “Open TG-GATES”:

Species on record: Rattus norvegicus
Assay: Open TG-GATES - Regimen: Single
Format: toxicity, organism-based, Sprague-Dawley
Design: regimen Single, gender Male, age 6 weeks
Details: in vivo, po, route gavage; for gamma-GTP / ALP / ALT / AST / BUN / CRE / Ca / Cl / DBIL / GLC / IP / K / LDH / Na / PL / RALB / TBIL / TC / TG / TP: tissue Plasma; for APTT / Bas / Eos / Fbg / Hb / Ht / Lym / MCH / MCHC / MCV / Mono / Neu / PT / Plat / RBC / Ret: tissue Blood; for KIDNEY_L / KIDNEY_R / KIDNEY_TOTAL: tissue Kidney; for LIVER: tissue Liver
[1] = 300 mg/kg, 3 h, dose level Middle
[2] = 300 mg/kg, 6 h, dose level Middle
[3] = 300 mg/kg, 9 h, dose level Middle
[4] = 300 mg/kg, 24 h, dose level Middle

`COc1ccc2[nH]c([S+]([O-])Cc3ncc(C)c(OC)c3C)nc2c1` (stereo not drawn) [OMEPRAZOLE] showed a gamma-GTP (100 mg/kg, 24 h, dose level Low) of 1.2 IU/L, a TERMINAL_BW [1] of 223.6 g and an APTT [1] of 18.7 s. For the same molecule, the Bas [1] was 0%, the Eos [1] was 1% and the Fbg [1] was 216.4 mg/dL. The Hb [1] was 12.4 g/dL, the Ht [1] was 36.4% and the Lym [1] was 73.2%. The MCH [1] was 21.2 pg, the MCHC [1] was 33.9% and the MCV [1] was 62.3 fL. For the same molecule, the Mono [1] was 3.4%, the Neu [1] was 22.2% and the PT [1] was 12.7 s. For the same molecule, the Plat [1] was 128.9 x10_4/uL, the RBC [1] was 584.6 x10_4/ul and the Ret [1] was 8.2%. The KIDNEY_L [1] was 1 g, the KIDNEY_R [1] was 1 g and the KIDNEY_TOTAL [1] was 1.9 g. It also gave an LIVER [1] of 9.8 g, an ALP [1] of 904.2 IU/L and an ALT [1] of 31.8 IU/L. It also gave an AST [1] of 67.2 IU/L, a BUN [1] of 10.2 mg/dL and a CRE [1] of 0.4 mg/dL. The Ca [1] was 10.6 mg/dL, the Cl [1] was 100.6 meq/L and the DBIL [1] was 0.064 mg/dL. For the same molecule, the GLC [1] was 194.8 mg/dL, the IP [1] was 9.4 mg/dL and the K [1] was 3.9 meq/L. The LDH [1] was 202 IU/L, the Na [1] was 139.6 meq/L and the PL [1] was 146.4 mg/dL. The RALB [1] was 3.3 g/dL, the TBIL [1] was 0.1 mg/dL and the TC [1] was 80.2 mg/dL. For the same molecule, the TG [1] was 70.2 mg/dL, the TP [1] was 5.4 g/dL and the gamma-GTP [1] was 1.6 IU/L. It also gave a TERMINAL_BW [2] of 217.5 g, an APTT [2] of 19 s and a Bas [2] of 0%. For the same molecule, the Eos [2] was 1%, the Fbg [2] was 216.4 mg/dL and the Hb [2] was 13.1 g/dL. For the same molecule, the Ht [2] was 38.3%, the Lym [2] was 74.4% and the MCH [2] was 21.2 pg. The MCHC [2] was 34.3%, the MCV [2] was 61.8 fL and the Mono [2] was 3.8%. The Neu [2] was 20.6%, the PT [2] was 12.9 s and the Plat [2] was 124 x10_4/uL. For the same molecule, the RBC [2] was 620.6 x10_4/ul, the Ret [2] was 6.5% and the KIDNEY_L [2] was 1 g. It also gave a KIDNEY_R [2] of 1 g, a KIDNEY_TOTAL [2] of 2 g and an LIVER [2] of 9.4 g. The ALP [2] was 913.6 IU/L, the AST [2] was 66 IU/L and the BUN [2] was 10 mg/dL. It also gave a CRE [2] of 0.4 mg/dL, a Ca [2] of 10.3 mg/dL and a Cl [2] of 100.8 meq/L. For the same molecule, the DBIL [2] was 0.066 mg/dL, the GLC [2] was 192 mg/dL and the IP [2] was 9.7 mg/dL. The K [2] was 4.1 meq/L, the LDH [2] was 171.2 IU/L and the Na [2] was 140 meq/L. It also gave a PL [2] of 145.6 mg/dL, an RALB [2] of 3.3 g/dL and a TBIL [2] of 0.1 mg/dL. The TC [2] was 72.8 mg/dL, the TG [2] was 74.4 mg/dL and the TP [2] was 5.5 g/dL. The gamma-GTP [2] was 1.4 IU/L, the TERMINAL_BW [3] was 218.4 g and the APTT [3] was 22.1 s. For the same molecule, the Bas [3] was 0%, the Eos [3] was 1% and the Fbg [3] was 223.8 mg/dL. The Hb [3] was 12.7 g/dL, the Ht [3] was 37% and the Lym [3] was 76.6%. It also gave an MCH [3] of 21.4 pg, an MCHC [3] of 34.3% and an MCV [3] of 62.4 fL. The Mono [3] was 3.2%, the Neu [3] was 18.4% and the PT [3] was 12.9 s. It also gave a Plat [3] of 117.1 x10_4/uL, an RBC [3] of 593.4 x10_4/ul and a Ret [3] of 6.7%. The KIDNEY_L [3] was 0.9 g, the KIDNEY_R [3] was 0.9 g and the KIDNEY_TOTAL [3] was 1.9 g. The LIVER [3] was 9.1 g, the ALP [3] was 761.6 IU/L and the ALT [3] was 27.6 IU/L. For the same molecule, the AST [3] was 62.8 IU/L, the BUN [3] was 8.2 mg/dL and the CRE [3] was 0.3 mg/dL. It also gave a Ca [3] of 10.2 mg/dL, a Cl [3] of 101.4 meq/L and a DBIL [3] of 0.068 mg/dL. It also gave a GLC [3] of 195.4 mg/dL, an IP [3] of 9.5 mg/dL and a K [3] of 3.9 meq/L. For the same molecule, the LDH [3] was 175.8 IU/L, the Na [3] was 140.8 meq/L and the PL [3] was 133.2 mg/dL. It also gave an RALB [3] of 3.4 g/dL, a TBIL [3] of 0.1 mg/dL and a TC [3] of 70.4 mg/dL. For the same molecule, the TG [3] was 74 mg/dL, the TP [3] was 5.4 g/dL and the gamma-GTP [3] was 0.8 IU/L. It also gave a TERMINAL_BW [4] of 229.5 g, an APTT [4] of 20.6 s and a Bas [4] of 0%. It also gave an Eos [4] of 1%, a Fbg [4] of 230.2 mg/dL and a Hb [4] of 13.5 g/dL. It also gave a Ht [4] of 39.6%, a Lym [4] of 81.2% and an MCH [4] of 20.6 pg. The MCHC [4] was 34.1%, the MCV [4] was 60.4 fL and the Mono [4] was 3%. For the same molecule, the Neu [4] was 14.6%, the PT [4] was 12.7 s and the Plat [4] was 129 x10_4/uL. The RBC [4] was 654.6 x10_4/ul, the Ret [4] was 6.1% and the KIDNEY_L [4] was 1 g. The KIDNEY_R [4] was 1 g, the KIDNEY_TOTAL [4] was 2 g and the LIVER [4] was 11.8 g. The ALP [4] was 1087 IU/L, the ALT [4] was 35 IU/L and the AST [4] was 65.8 IU/L. For the same molecule, the BUN [4] was 15.4 mg/dL, the CRE [4] was 0.4 mg/dL and the Ca [4] was 10.3 mg/dL. The Cl [4] was 101 meq/L, the DBIL [4] was 0.1 mg/dL and the GLC [4] was 205.2 mg/dL. The IP [4] was 9.4 mg/dL, the K [4] was 3.8 meq/L and the LDH [4] was 207 IU/L. The Na [4] was 140.8 meq/L, the PL [4] was 146.4 mg/dL and the RALB [4] was 3.3 g/dL. For the same molecule, the TBIL [4] was 0.2 mg/dL, the TC [4] was 72 mg/dL and the TG [4] was 139.4 mg/dL. It also gave a TP [4] of 5.5 g/dL.
